Measurements from ChEMBL document CHEMBL1141099, “Discovery of N-(2,6-dimethylphenyl)-substituted semicarbazones as anticonvulsants: hybrid pharmacophore-based design” (2005).

Legend:
Rattus norvegicus [1] = test: Effect on GABA level in rat whole brain concentration after 7 days post-treatment at a dose of 30 mg/Kg when given orally; Control 50.5; type: functional
[2] = molecular target: 4-aminobutyrate aminotransferase, mitochondrial (Rattus norvegicus) (UniProt P50554); test: In vitro percentage inhibition activity against GABA-T enzyme at a concentration of 5 uM after 6 h
[3] = molecular target: 4-aminobutyrate aminotransferase, mitochondrial (Rattus norvegicus) (UniProt P50554); test: In vitro percentage inhibition activity against GABA-T enzyme at a concentration of 5 uM after 4.5 h
Mus musculus [4] = test: Post treatment activity score for CNS study using a actophotometer at a dose of 100 mg/Kg after 1 h when given i.p., in mice (No. of animals 6); Control (24h before) 238
Rattus norvegicus [5] = test: Number of rats protected at a dose of 30 mg/Kg when given oral at 2 hr upon maximal electroshock seizure; Total number of rats = 4; type: functional
Rattus norvegicus [6] = organism: Rattus norvegicus; test: Ex vitro percentage inhibition activity against GABA-T enzyme at a concentration of 2.5 uM after 6 h; type: functional
Rattus norvegicus [7] = test: Number of rats protected at a dose of 30 mg/Kg when given oral at 0.5 hr upon maximal electroshock seizure; Total number of rats = 4; type: functional
Mus musculus [8] = test: Mean sleeping time evaluated for CNS study using the pentobarbital-induced narcosis model at a dose of 100 mg/Kg when given i.p., in mice (No. of animals 6)
Rattus norvegicus [9] = test: Toxic dose observed for anticonvulsant activity when given i.p., at 1 h in rat upon neurotoxicity seizure; type: functional; settings: ip
Rattus norvegicus [10] = test: Effect on GABA level in rat whole brain concentration after 2 hr post-treatment at a dose of 100 mg/Kg when given i.p.; Control 48.4; type: functional
Mus musculus [11] = test: Minimum dose required for anticonvulsant activity when given i.p., at 0.5 hr in mice upon subcutaneous pentylenetetrazole seizure; type: functional
Mus musculus [12] = test: Minimum dose required for anticonvulsant activity when given i.p., at 0.5 hr in mice upon subcutaneous strychnine seizure; type: functional
Rattus norvegicus [13] = organism: Rattus norvegicus; test: Ex vitro percentage inhibition activity against GABA-T enzyme at a concentration of 2.5 uM after 4.5 h; type: functional
Rattus norvegicus [14] = test: Effective dose required for anticonvulsant activity when given i.p., at 1 hr in rat upon maximal electroshock seizure; type: functional; settings: ip
Rattus norvegicus [15] = test: Number of rats protected at a dose of 30 mg/Kg when given oral at 4 hr upon maximal electroshock seizure; Total number of rats = 4; type: functional
[16] = molecular target: 4-aminobutyrate aminotransferase, mitochondrial (Rattus norvegicus) (UniProt P50554); test: In vitro percentage inhibition activity against GABA-T enzyme at a concentration of 5 uM after 3 h
Mus musculus [17] = test: Minimum dose required for anticonvulsant activity when given i.p., at 4 hr in mice upon maximal electroshock seizure; type: functional
Mus musculus [18] = test: Post treatment activity score for CNS study using a actophotometer at a dose of 100 mg/Kg after 0.5 hr when given i.p., in mice (No. of animals 6); Control (24h before) 238
Rattus norvegicus [19] = organism: Rattus norvegicus; test: Ex vitro percentage inhibition activity against GABA-T enzyme at a concentration of 2.5 uM after 3 h; type: functional
Rattus norvegicus [20] = test: Number of rats protected at a dose of 30 mg/Kg when given oral at 1 hr upon maximal electroshock seizure; Total number of rats = 4; type: functional
Mus musculus [21] = test: Minimum dose required for anticonvulsant activity when given i.p., at 0.5 hr in mice upon maximal electroshock seizure; type: functional
Mus musculus [22] = test: Post treatment immobility time for CNS study using Porsolt's swimpool test at a dose of 100 mg/Kg after 1 hr when given i.p., in mice (No. of animals 6); Control (24h before) 143
Mus musculus [23] = test: Minimum dose required for anticonvulsant activity when given i.p., at 2 hr in mice upon subcutaneous strychnine seizure; type: functional
Rattus norvegicus [24] = organism: Rattus norvegicus; test: Protective index between effective dose and toxic dose in rat; type: functional
Rattus norvegicus [25] = test: Number of rats protected at a dose of 30 mg/Kg when given oral at 0.25 hr upon maximal electroshock seizure; Total number of rats = 4; type: functional
Rattus norvegicus [26] = organism: Rattus norvegicus; test: Ex vitro percentage inhibition activity against GABA-T enzyme at a concentration of 1.25 uM after 4.5 h; type: functional
Mus musculus [27] = test: Post treatment activity score for CNS study using a actophotometer at a dose of 100 mg/Kg after 1 hr when given i.p., in mice (No. of animals 6); Control (24h before) 268
Mus musculus [28] = test: Post treatment immobility time for CNS study using Porsolt's swimpool test at a dose of 100 mg/Kg after 1 hr when given i.p., in mice (No. of animals 6); Control (24h before) 146
Rattus norvegicus [29] = organism: Rattus norvegicus; test: Ex vitro percentage inhibition activity against GABA-T enzyme at a concentration of 1.25 uM after 3 h; type: functional
Rattus norvegicus [30] = organism: Rattus norvegicus; test: Ex vitro percentage inhibition activity against GABA-T enzyme at a concentration of 1.25 uM after 6 h; type: functional
Mus musculus [31] = test: Post treatment activity score for CNS study using a actophotometer at a dose of 100 mg/Kg after 0.5 hr when given i.p., in mice (No. of animals 6); Control (24h before) 268
Rattus norvegicus [32] = test: Effective dose required for anticonvulsant activity when given orally at 2 h in rat upon maximal electroshock seizure; type: functional; settings: po
Rattus norvegicus [33] = test: Enzymatic activity to assess the increase in level of SGPT at a dose of 30 mg/Kg for 14 days when given p.o., in 6 rats; Control 45.0; type: functional
Rattus norvegicus [34] = test: Toxic dose observed for anticonvulsant activity when given orally at 2 hr in rat upon neurotoxicity seizure; type: functional; settings: po
Rattus norvegicus [35] = test: Enzymatic activity to assess the increase in level of SGOT at a dose of 30 mg/Kg for 14 days when given p.o., in 6 rats; Control 73.1; type: functional
Mus musculus [36] = test: Post treatment activity score for CNS study using a actophotometer at a dose of 100 mg/Kg after 1 hr when given i.p., in mice (No. of animals 6); Control (24h before) 245
Rattus norvegicus [37] = test: Effective dose required for anticonvulsant activity when given i.p., at 2 hr in rat upon maximal electroshock seizure; type: functional; settings: ip
[38] = molecular target: 4-aminobutyrate aminotransferase, mitochondrial (Rattus norvegicus) (UniProt P50554); test: In vitro percentage inhibition activity against GABA-T enzyme at a concentration of 0.625 uM after 3 h
Mus musculus [39] = test: Post treatment activity score for CNS study using a actophotometer at a dose of 100 mg/Kg after 0.5 hr when given i.p., in mice (No. of animals 6); Control (24h before) 245
[40] = molecular target: 4-aminobutyrate aminotransferase, mitochondrial (Rattus norvegicus) (UniProt P50554); test: In vitro percentage inhibition activity against GABA-T enzyme at a concentration of 0.625 uM after 6 h
Mus musculus [41] = test: Minimum dose required for anticonvulsant activity when given i.p., at 0.5 hr in mice upon neurotoxicity seizure using rotarod test; type: functional
Mus musculus [42] = test: Post treatment immobility time for CNS study using Porsolt's swimpool test at a dose of 100 mg/Kg after 1 hr when given i.p., in mice (No. of animals 6); Control (24h before) 182
[43] = molecular target: 4-aminobutyrate aminotransferase, mitochondrial (Rattus norvegicus) (UniProt P50554); test: In vitro percentage inhibition activity against GABA-T enzyme at a concentration of 0.625 uM after 4.5 h
Rattus norvegicus [44] = test: Toxic dose observed for anticonvulsant activity when given i.p., at 2 hr in rat upon neurotoxicity seizure; type: functional; settings: ip
Mus musculus [45] = test: Post treatment activity score for CNS study using a actophotometer at a dose of 100 mg/Kg after 1 hr when given i.p., in mice (No. of animals 6); Control (24h before) 202
Rattus norvegicus [46] = test: Seizure score after administration in rat 1 at dose 100 mg/Kg when given i.p., upon preliminary hippocampal-kindling screen; type: functional, Hippocampus
Rattus norvegicus [47] = test: After discharge duration time when before administered in rat 1 at dose 100 mg/Kg when given i.p., upon preliminary hippocampal-kindling screen; Prodrug time 26-42 s; type: functional, Hippocampus
Rattus norvegicus [48] = test: After discharge duration time when after administered in rat 1 at dose 100 mg/Kg when given i.p., upon preliminary hippocampal-kindling screen; type: functional, Hippocampus
Rattus norvegicus [49] = organism: Rattus norvegicus; test: Ex vitro percentage inhibition activity against GABA-T enzyme at a concentration of 5 uM after 6 h; type: functional
Rattus norvegicus [50] = test: After discharge duration time when after administered in rat 2 at dose 100 mg/Kg when given i.p., upon preliminary hippocampal-kindling screen; type: functional, Hippocampus
Rattus norvegicus [51] = test: After discharge duration time when before administered in rat 2 at dose 100 mg/Kg when given i.p., upon preliminary hippocampal-kindling screen; Prodrug time 11-39 s; type: functional, Hippocampus
Rattus norvegicus [52] = test: Seizure score before administration in rat 2 at dose 100 mg/Kg when given i.p., upon preliminary hippocampal-kindling screen; […]; type: functional, Hippocampus
Rattus norvegicus [53] = organism: Rattus norvegicus; test: Ex vitro percentage inhibition activity against GABA-T enzyme at a concentration of 5 uM after 3 h; type: functional
Mus musculus [54] = test: Post treatment activity score for CNS study using a actophotometer at a dose of 100 mg/Kg after 0.5 hr when given i.p., in mice (No. of animals 6); Control (24h before) 202
Rattus norvegicus [55] = organism: Rattus norvegicus; test: Ex vitro percentage inhibition activity against GABA-T enzyme at a concentration of 5 uM after 4.5 h; type: functional
Mus musculus [56] = test: Post treatment immobility time for CNS study using Porsolt's swimpool test at a dose of 100 mg/Kg after 1 hr when given i.p., in mice (No. of animals 6); Control (24h before) 173
Rattus norvegicus [57] = test: Seizure score before administration in rat 1 at dose 100 mg/Kg when given i.p., upon preliminary hippocampal-kindling screen; type: functional, Hippocampus
Rattus norvegicus [58] = test: Seizure score after administration in rat 2 at dose 100 mg/Kg when given i.p., upon preliminary hippocampal-kindling screen; type: functional, Hippocampus

Chain of 4-aminobutyrate aminotransferase, mitochondrial (Rattus norvegicus) (P50554 28-500 limits assumed): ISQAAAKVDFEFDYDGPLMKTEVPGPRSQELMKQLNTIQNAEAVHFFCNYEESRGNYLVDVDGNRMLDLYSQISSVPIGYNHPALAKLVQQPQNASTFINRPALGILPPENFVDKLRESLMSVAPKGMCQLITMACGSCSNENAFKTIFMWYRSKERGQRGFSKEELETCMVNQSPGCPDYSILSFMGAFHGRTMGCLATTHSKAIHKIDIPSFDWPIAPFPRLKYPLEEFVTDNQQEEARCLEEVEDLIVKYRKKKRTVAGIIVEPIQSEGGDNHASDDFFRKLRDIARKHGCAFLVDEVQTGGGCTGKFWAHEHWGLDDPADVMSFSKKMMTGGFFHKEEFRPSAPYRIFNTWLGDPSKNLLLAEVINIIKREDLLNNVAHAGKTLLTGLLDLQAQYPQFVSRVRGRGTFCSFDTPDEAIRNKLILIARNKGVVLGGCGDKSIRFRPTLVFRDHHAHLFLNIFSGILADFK

Row | SMILES | Activity (Rattus norvegicus [1]) | inhibition [2] [%] | inhibition [3] [%] | Activity (Rattus norvegicus [5]) | Activity (Rattus norvegicus [7]) | Time (Mus musculus [8]) [min] | TD50 (Rattus norvegicus [9]) [mg/kg] | Activity (Rattus norvegicus [10]) | PTZ seizure (Mus musculus [11]) [mg/kg] | STY seizure (Mus musculus [12]) [mg/kg] | ED50 (Rattus norvegicus [14]) [mg/kg] | Activity (Rattus norvegicus [15]) | inhibition [16] [%] | MES (Mus musculus [17]) [mg/kg] | Activity (Rattus norvegicus [20]) | MES (Mus musculus [21]) [mg/kg] | STY seizure (Mus musculus [23]) [mg/kg] | PI (Rattus norvegicus [24]) | Activity (Rattus norvegicus [25]) | Inhibition (Rattus norvegicus [26]) [%] | other results
1 | COc1cc(/C=N/NC(=O)Nc2c(C)cccc2C)ccc1O | 106 ug/100mg of tissue | 23 | 56 | 3 | 3 | 68 | > 117 | 91.2 ug/100mg of tissue | 300 | 30 | 26.2 | 4 | 0 | 300 | 4 | 100 | 100 | >4.4 | 3 |  | Activity (Mus musculus [4]): 130; Inhibition (Rattus norvegicus [6]): 12%; Inhibition (Rattus norvegicus [13]): 56%; Activity (Mus musculus [18]): 157; Inhibition (Rattus norvegicus [19]): 0%; Activity (Mus musculus [22]): 207
2 | Cc1ccc(/C=N/NC(=O)Nc2c(C)cccc2C)cc1 | 100 ug/100mg of tissue | 0 | 70 | 4 | 2 | 150 |  | 90.2 ug/100mg of tissue | 300 | 100 |  | 3 | 55 | 300 | 3 | 100 | 100 | >3.62 | 0 | 75 | Activity (Mus musculus [27]): 133; Activity (Mus musculus [28]): 225; Inhibition (Rattus norvegicus [29]): 32%; Inhibition (Rattus norvegicus [30]): 48%; Activity (Mus musculus [31]): 175; ED50 (Rattus norvegicus [32]): 33.1 mg/kg; SGPT activity (Rattus norvegicus [33]): 47.3 units/mL; TD50 (Rattus norvegicus [34]): > 120 mg/kg; SGOT activity (Rattus norvegicus [35]): 70.2 units/mL
3 | Cc1cccc(C)c1NC(=O)N/N=C/c1ccc(N(C)C)cc1 | 68.1 ug/100mg of tissue |  |  | 3 | 2 |  |  | 75.5 ug/100mg of tissue | 300 | 100 |  | 4 |  | 300 | 2 | 100 | 100 | >13.6 | 1 | 0 | Activity (Mus musculus [36]): 124; ED50 (Rattus norvegicus [37]): 18.3 mg/kg; Inhibition (Rattus norvegicus [29]): 0%; Inhibition (Rattus norvegicus [30]): 9%; inhibition [38]: 0%; Activity (Mus musculus [39]): 147; inhibition [40]: 0%; NT (Mus musculus [41]): 300 mg/kg; Activity (Mus musculus [42]): 207; inhibition [43]: 64%; TD50 (Rattus norvegicus [44]): > 250 mg/kg
4 | Cc1cccc(C)c1NC(=O)N/N=C/c1cccc([N+](=O)[O-])c1 | 87.9 ug/100mg of tissue |  |  | 1 | 1 | 147 | > 120 | 79.8 ug/100mg of tissue | 300 | 30 | 29.7 | 3 |  | 300 | 3 | 100 | 100 | >4 | 1 |  | Activity (Mus musculus [45]): 131; Score (Rattus norvegicus [46]): 1; ADD (Rattus norvegicus [47]): 42 s; ADD (Rattus norvegicus [48]): 52 s; Inhibition (Rattus norvegicus [49]): 0%; ADD (Rattus norvegicus [50]): 59 s; ADD (Rattus norvegicus [51]): 39 s; Score (Rattus norvegicus [52]): 4; Inhibition (Rattus norvegicus [53]): 0%; Activity (Mus musculus [54]): 129; Inhibition (Rattus norvegicus [55]): 0%; Activity (Mus musculus [56]): 231; inhibition [38]: 88%; Score (Rattus norvegicus [57]): 5; inhibition [40]: 0%; NT (Mus musculus [41]): 300 mg/kg; inhibition [43]: 0%; Score (Rattus norvegicus [58]): 5
